Reference: patent US20140371069A1, “Short-Chain Alkyl Sulfonates in Pesticide Formulations and Applications” (priority 2011, published 2014)
Where two headings read alike, the source gives them in different places.

Legend:
[1] = Stability of pesticide formulation containing glufosinate-ammonium and C8 ether sulfate at 1:1 weight ratio with test hydrotrope
Description: Specifically, the pesticide active in the pesticide formulation is glufosinate-ammonium and the adjuvant is C8 ether sulfate.

[2] = Separation of the formulations after one freeze/thaw cycle (ternary diagram); type: physicochemical; conditions: FIG. 2 versus FIG. 4
Method: The formulations listed in Example 1 were subjected to a freeze/thaw cycle in which the formulations were frozen and thawed to room temperature. The stability of the formulations was then assessed. FIG. 2 illustrates the results of the assessment. FIG. 2 is a ternary diagram showing regions of varying percentages of separation after one freeze/thaw cycle of the formulations.
A freeze/thaw cycle changes the solubility of some of the components, therefore, by subjecting the formulations to a freeze/thaw cycle, the effect of the solubility change on the stability of the formulations can be assessed.
The formulations listed in Comparative Example 1 were subjected to a freeze/thaw cycle and the stability of the formulations was subsequently assessed. FIG. 4 illustrates the results of the assessment. FIG. 4 is a ternary diagram showing regions of varying percentages of separation after one freeze/thaw cycle of the formulations.

[3] = Separation of the formulations on standing at room temperature (ternary diagram); type: physicochemical; conditions: for region of stability (blue region) in ternary diagram of percentage of separation: glufosinate ammonium 25.8%, C8 ether sulfate 30.6%, hydrotrope 0-10%, propylene glycol 0-15% w/w
Method: A design experiment was performed in which pesticide formulations containing the following were prepared: [table] The formulations were allowed to sit for 24 hours at room temperature and the stability of the formulations was assessed. FIG. 1 illustrates the results of the experiment. FIG. 1 is a ternary diagram showing regions of varying percentages of separation after 24 hours at room temperature of the formulations containing the above-listed components. The numbers associated with the small colored bar in the upper left hand corner of the figure indicate the percentage of separation in the samples. The colors in the bar correspond to the colored regions in the ternary diagram. […] An experiment was performed in which pesticide formulations containing the following were prepared: [table] The formulations were allowed to sit for two hours at room temperature and the stability of the formulations was assessed. FIG. 3 illustrates the results of the experiment. FIG. 3 is a ternary diagram showing regions of varying percentages of separation after two hours at room temperature of the formulations containing the above-listed components.

[4] = glufosinate-ammonium and C8 ether sulfate at 1:1 weight ratio
[5] = after 24 hours at room temperature, FIG. 1

Compound | stability of the pesticide formulation containing the material as hydrotrope [1] | stability of the pesticide formulation containing the material as hydrotrope [1, 4] | also measured
COC(C)COC(C)CO (stereo not drawn) [dipropylene glycol monomethyl ether] | developed two phases that separated very quickly | – | –
CC(O)CO (stereo not drawn) [propylene glycol] | – | developed two phases that separated very quickly | –
CC(C)c1ccc(S(=O)(=O)[O-])cc1.[Na+] [sodium cumene sulfonate] | – | developed two phases that separated very quickly | –
CCCCCCCCS(=O)(=O)[O-].[Na+] [sodium octane sulfonate] | – | – | effectiveness as a hydrotrope compared with sodium xylene sulfonate [2]: more effective as a hydrotrope than sodium xylene sulfonate; effectiveness as a hydrotrope in the formulations [3, 5]: effective as a hydrotrope; region of stability (blue region) in ternary diagram of percentage of separation [3, 5]: large; effectiveness as a hydrotrope compared with sodium xylene sulfonate ([3]; room temperature, FIG. 1 (24 hours) versus FIG. 3 (two hours)): significantly more effective as a hydrotrope than sodium xylene sulfonate
C4 alcohol+2EO sulfate ester sodium salt | developed two phases that separated very quickly | – | –
C4 alcohol+4EO sulfate esters sodium salt | developed two phases that separated very quickly | – | –
C6 alcohol+4EO sodium salt | developed two phases that separated very quickly | – | –
sodium xylene sulfonate | – | developed two phases that separated very quickly | region of stability (blue region) in ternary diagram of percentage of separation ([3]; after two hours at room temperature, FIG. 3): small
